Source: patent US6638963B1, “Methods for treating circadian rhythm disorders” (Oregon Health and Science University, priority 1990, dated 2003)

How the values were obtained:
Format in all cases: in vivo, human
[1] = tested on: dim light melatonin onset (DLMO); assay: Melatonin phase response curve trials, two doses of 0.25 mg two hours apart (Example 2); conditions: four days, nine subjects, 30 trials, time referenced to first capsule
Experimental: (§1) Prior to collection of human blood, subjects were kept in dim light for about 5 hours (usually between 6 p.m. and 11 p.m.). An intravenous line or heparin lock was inserted in a forearm vein and 5 mL of blood drawn every 30 minutes between 7 p.m. and 11 p.m. The blood samples were centrifuged for 5 minutes at 1000 g and 4° C., and the plasma aspirated into a silanized glass or plastic tube. Samples were assayed immediately or frozen for later analysis. Saliva samples can alternatively be collected and analyzed
To a 1 mL aliquot of such plasma was added 50 picograms of N-acetyl-5-methoxy(α,α,β,β-D4)tryptamine as a chromatographic control. […]
(§2) The amount of melatonin present in each sample was determined by gas chromatographic-mass spectrometric analysis. […]
Mass spectrographic analysis of the column eluant was then performed. Mass spectra were recorded using a Hewlett Packard 5989A mass spectrometer with an ETP Scientific electron multiplier using HP Chemstation software. The relative signals of melatonin and the added N-acetyl-5-methoxy(α,α,β,β-D4)tryptamine control were detected at m/e (mass/charge) ratios of 320 and 323, respectively. […]
Melatonin was administered to nine subjects as two doses of 0.25 mg, two hours apart, thereby simulating a sustained-release (SR) formulation. […] Phase shifts were calculated by subtracting the post-treatment DLMO from the pre-treatment DLMO. […]

[2] = tested on: dim light melatonin onset (DLMO); assay: Melatonin phase response curve trials, single 0.5 mg immediate-release dose (Example 3)
Experimental: as §1
To a 1 mL aliquot of such plasma was added 50 picograms of N-acetyl-5-methoxy(α,α,β,β-D4)tryptamine as a chromatographic control. An equal volume of normal saline was added and the mixture gently shaken with 8 volumes of petroleum ether. The organic phase was removed, and melatonin and the added N-acetyl-5-methoxy(α,α,β,β-D4)tryptamine control extracted from the aqueous phase with 8 volumes of chloroform. The aqueous phase was then discarded, and the chloroform evaporated to dryness.
The dried extract containing melatonin and the added N-acetyl-5-methoxy(α,α,β,β-D4)tryptamine control was dissolved in 50 μL ethyl acetate. The melatonin contained in the plasma samples and the added N-acetyl-5-methoxy(α,α,β,β-D4)tryptamine control were then derivatized by the addition of 50 μL of pentafluoroproprionic acid anhydride and reacted at 70° C. for 10 minutes. These reaction products were then evaporated to dryness under nitrogen. The dried extract was partitioned between 0.5 mL acetonitrile and 1 mL hexane by vigorous mixing followed by centrifugation and removal of the hexane layer. This partitioning step was repeated twice more, except that the hexane was not removed after the final partitioning. […]
as §2
Mass spectrographic analysis of the column eluant was then performed. Mass spectra were recorded using a Hewlett Packard 5989A mass spectrometer with an ETP Scientific electron multiplier using HP Chemstation software. The relative signals of melatonin and the added N-acetyl-5-methoxy(α,α,β,β-D4)tryptamine control were detected at m/e (mass/charge) ratios of 320 and 323, respectively. The amount of melatonin present in any unknown sample can be determined by comparison of the ratio of the intensities of these signals to a standard curve, prepared as described using known amounts of melatonin and added N-acetyl-5-methoxy(α,α,β,β-D4)tryptamine control.
Melatonin was administered to five subjects as a single 0.5 mg (or immediate-release (IR)) dose. […] Dim light melatonin onset (DLMO) times were determined at the end of each week. Phase shifts were calculated from a comparison of the post-treatment DLMO to the pre-treatment DLMO. […]

[3] = tested on: patients with winter depression; assay: Treatment of patients with winter depression, SIGH-SAD depression ratings, melatonin versus placebo (Example 11); conditions: for SIGH-SAD change score from pre-treatment: 0.125 mg per capsule at about CT 8 and about CT 12, N=5, p<0.05 vs placebo
Experimental: Patients with winter depression were treated with either melatonin (N=5) or placebo (N=5). All subjects were screened prior to being admitted into the study and met the following criteria: 1) the DSM-IV criteria (American Psychiatric Association, 1994) for moderate to severe major depressive disorder (without psychotic episodes) or bipolar disorder (depressed or not otherwise specified) with a winter type seasonal pattern; 2) scored […] on the Structured Interview Guide for the Hamilton Depression Rating Scale Seasonal Affective Disorder Version (SIGH-SAD) (Williams et al., 1994, Structured Interview Guide for the Hamilton Depression Scale-Seasonal Effective Disorder Version (SIGH-SAD), New York: New York State Psychiatric Institute) with Hamilton Depression Scale (HAM-D) (Hamilton, 1967, Brit. J. Soc. Clin. Psychol. 6: 278-296)≦10 and an atypical score ≦5 ([…] et al., 1990, Neuropsychopharmacol. […] Prior to inclusion in the study, subjects were interviewed by a physician and also completed 7 a health and sleep screening questionnaire. Written informed consent was obtained for all participants. The study was a three-week, parallel-group design, consisting of a pre-treatment assessment followed by three treatment weeks. Subjects were randomly assigned to either a melatonin or placebo group and were counter balanced based on their initial depression scores (SIGH-SAD) and their reported awakening times. Each group received melatonin or placebo in two daily capsules at about CT 8 and about CT 12, estimated from each subject's initial reported awakening time (about CT 0). The dose of melatonin was 0.125 mg per capsule. For behavioral ratings, subjects were initially interviewed face-to-face using the 29-item Structured Interview Guide for the Hamilton Depression Rating Scale-Seasonal Affective Disorder version (SIGH-SAD). Two subsequent interviews were done weekly by telephone and the third and final interview was conducted in person. All interviews were conducted by a researcher blind to treatment conditions. For the three-week period, subjects completed a Likert daily rating form and a daily sleep diary. To specifically assess fatigue associated with the capsule, subjects also completed a Profile of Mood States (POMS) 30 minutes after ingestion of each capsule. In addition, pre-study and weekly expectations questionnaires were completed. Ten patients (9 females) with winter depression were admitted into the study. The mean age of the melatonin group was 37 (SD=13.6; range: 22-58) and the placebo group was 32.2 (SD=8.6; range: 22-42). The mean pre-treatment SIGH-SAD score for the placebo group was 29.4; the melatonin group mean was 29.2. The initial reported mean wake up time for the placebo group was 7:12 AM; the melatonin group mean was 7:20 AM. […]

[4] = tested on: endogenous circadian pacemaker; assay: Dose effect of melatonin on shift of the endogenous circadian pacemaker; conditions: melatonin dosages from about 0.125 mg to about 0.5 mg
Source text: The present invention contemplates the administration of various doses of melatonin which promote quantitative shifts in an individual's endogenous circadian pacemaker. The administration of sufficient doses of melatonin is capable of shifting the endogenous circadian pacemaker, as well as the melatonin PRC, by an appropriate degree. […] The amount of melatonin administered to a human subject should be sufficient to achieve the desired circadian rhythm phase-shifting effect. In a preferred embodiment of this invention, a dosage of about 0.01 mg to about 100 mg, more preferably about 0.1 mg to about 10 mg, most preferably about 0.1 mg to about 1 mg, of exogenous melatonin is used to effect the desired change in phase of the circadian rhythm of endogenous melatonin production. For the purposes of this invention, the term “exogenously administered melatonin” encompasses various formulations of melatonin, melatonin agonists (that is, compounds that mimic melatonin's actions) and compounds that raise endogenous melatoriin levels. Therefore, whenever reference is made to increasing plasma melatonin levels due to administration of exogenous melatonin, this refers also to increasing plasma melatonin levels due to administration of a melatonin stimulant and increasing equivalent agonist levels due to administration of a melatonin agonist. […]

[5] = both PRC studies (Examples 2 and 3)

Structure (SMILES): COc1ccc2[nH]cc(CCNC(C)=O)c2c1 [melatonin, N-acetyl-5-methoxytryptamine]
- circadian time of administration at which maximal phase advances occur [1]: ~7.5 CT
- crossover point between advance and delay responses of the melatonin PRC [2, 5]: ~18 CT
- crossover point between delay and advance responses of the melatonin PRC [2, 5]: ~6 CT
- circadian time for maximal phase advances ([2]; single 0.5 mg IR dose, four days, five subjects, twelve trials each): ~11 CT
- circadian time at which phase delays begin ([2]; single 0.5 mg IR dose, same time as found in Example 2): ~6 CT
- SIGH-SAD change score from pre-treatment ([3]; Week 1): 15.4
- SIGH-SAD change score from pre-treatment ([3]; Week 2): 16.8
- responders (39% or greater decrease in SIGH-SAD ratings to a score of 21 or less) ([3]; five subjects per group, one responder in placebo group, p=0.048, Fisher's Exact test): all five subjects responded
- SIGH-SAD scores after two weeks of capsules, melatonin versus placebo ([3]; one-tailed unpaired t-test, p=0.05): significant difference
- dose effect on shift of endogenous circadian pacemaker [4]: linear dose effect
